# Measured values as given in PubChem BioAssay (NCI).
# Where “and” joins values, the source holds several entries; their conditions need not be identical. Equal entries are not always repeated.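 Where inhibition never reached the appropriate level, the endpoint shown equals the highest concentration tested. Otherwise, values were interpolated linearly from a five-concentration, 48-hour dose response in 96-well plates. GI50 = concentration required for 50% inhibition of growth. Definition used: TGI = concentration required for complete inhibition of growth.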 Where a SMILES comes first, the peptide text is derived from it. [ ]: non-standard residue; d: D form. The star is where a group is joined. ξ: configuration not given here. ξD = NC(CC(=O)O)C(=O)O; Ac3c = NC1(C(=O)O)CC1; Boc = CC(C)(C)OC(=O)*; OBn = c1ccc(CO*)cc1
# Legend:
# Experiment in all cases: NCI-60 cell line screen, 48 h
# SW-620 colon = system: SW-620 colon
# OVCAR-5 ovarian = system: OVCAR-5 ovarian
# CAKI-1 renal = system: CAKI-1 renal
# KM12 colon = system: KM12 colon
# SR leukemia = system: SR leukemia
# OVCAR-4 ovarian = system: OVCAR-4 ovarian
# SNB-75 CNS = system: SNB-75 CNS
# A498 renal = system: A498 renal
# SF-539 CNS = system: SF-539 CNS
# HL-60(TB) leukemia = system: HL-60(TB) leukemia
Compound,TGI (SW-620 colon) [µM],TGI (OVCAR-5 ovarian),TGI (CAKI-1 renal) [µM],TGI (KM12 colon) [µM],TGI (SR leukemia) [µM],TGI (OVCAR-4 ovarian) [µM],TGI (SNB-75 CNS) [µM],TGI (A498 renal) [µM],TGI (SF-539 CNS),TGI (HL-60(TB) leukemia) [µM],GI50 (OVCAR-5 ovarian) [µM],GI50 (CAKI-1 renal) [µM],GI50 (HL-60(TB) leukemia) [µM],GI50 (SW-620 colon) [µM],GI50 (KM12 colon) [µM],GI50 (SR leukemia) [µM],GI50 (A498 renal) [µM],GI50 (SF-539 CNS) [µM]
NC(c1ccccc1)(C(F)(F)F)P1(=O)OC(=O)c2ccccc2O1 (stereo not drawn),> 100,> 100 µM,> 100,> 100,> 100,> 100,> 100,> 100,> 100 µM,–,–,–,–,–,–,–,–,–
O=C(c1ccccc1)c1c(C(F)(F)F)n([O-])c2cc(Cl)c(Cl)cc2[n+]1=O,6.72,3.41 µM,2.93,1.08,0.724,3.12,2.58,–,3.88 µM,2.06,–,–,–,–,–,–,–,–
O=C1CCCC2=C1C(c1ccc3c(c1)OCO3)Nc1ccc3ccccc3c12 (stereo not drawn),> 100,> 100 µM,> 100,> 100,–,–,> 100,> 100,> 100 µM,–,–,–,–,–,–,–,–,–
OCC(O)C1OC2CC1Nc1ccccc1N2 (stereo not drawn),> 100,–,> 100,> 100,–,–,> 100,> 100,> 100 µM,> 100,–,–,–,–,–,–,–,–
CC(=O)OCc1cc(=O)n(C)c2c3c4c(cc12)c(C)cc(=O)n4CO3,15.6,20.5 µM,33.9,41.7,–,6.56,4.69,5.3,3.95 µM,16.2,–,–,–,–,–,–,–,–
Cc1cn(CC2=NCCCN2)c(=O)[nH]c1=O,> 100,> 100 µM,–,–,> 100,–,> 100,> 100,–,–,–,–,–,–,–,–,–,–
O=C1CSC2=NCC3(NN12)c1ccccc1-c1ccccc13,> 10,–,> 10,> 10,> 10,> 10,> 10,–,> 10 µM,> 10,–,–,–,–,–,–,–,–
N/N=C1/C(=N/O)CCc2nonc21,> 100,> 100 µM,> 100,> 100,> 100,> 100,> 100,–,> 100 µM,> 100,–,–,–,–,–,–,–,–
COC(=O)C1(NC(=O)C(CC(=O)OCc2ccccc2)NC(=O)OC(C)(C)C)CC1 (stereo not drawn) (Boc-[ξD](OBn)-[Ac3c]-OMe),> 100,> 100 µM,> 100,> 100,–,> 100,> 100,> 100,> 100 µM,–,–,–,–,–,–,–,–,–
CN(C)CCCNc1c2ccccc2nc2cccc([N+](=O)[O-])c12,–,0.0214 µM and 0.0509 µM,–,–,0.0576,< 0.001,–,0.00198,0.00757 µM and 0.0252 µM,0.0721,0.0197,< 0.001,0.0175,–,–,–,–,–
CC(=NCCN(CCN=C(C)c1c(O)cc(C)oc1=O)CCN=C(C)c1c(O)cc(C)oc1=O)c1c(O)cc(C)oc1=O,> 100,> 100 µM,–,> 100,> 100,> 100,> 100,–,> 100 µM,> 100,–,–,–,–,–,–,–,–
CSc1nc(NC2OCC(O)C(O)C2O)c(N)c(=O)n1C (stereo not drawn),> 100,> 100 µM,–,> 100,–,> 100,> 100,> 100,> 100 µM,> 100,–,–,–,–,–,–,–,–
C[C@H](CC[C@@H](O)C(C)(C)O)[C@H]1CC[C@@]2(C)[C@@H]3CC=C4[C@@H](CC[C@H](O)C4(C)C)[C@]3(C)C(=O)C[C@]12C,> 50,> 50 µM,–,49.2,> 50,> 50,–,> 50,> 50 µM,> 50,–,–,–,–,–,–,–,–
CC(=Nc1c2ccccc2nc2ccccc12)N(C)C,–,> 100 µM,> 100,–,23.3,90.8,71,–,–,24,–,–,–,–,–,–,–,–
O=C(/C=C/c1ccc(-c2ccccc2)cc1)NCc1ccc(C(=O)NCCc2c[nH]c3ccccc23)cc1,> 100,66.6 µM,40.7,> 100,> 100,72.1,42.8,80.4,> 100 µM,–,–,–,–,–,–,–,–,–
Nc1ccccc1NC(=O)CCCCCCC(=O)Nc1ccc2c(c1)/C(=C/c1ccc[nH]1)C(=O)N2,> 100,> 100 µM,–,> 100,> 100,–,–,> 100,> 100 µM,> 100,> 100,–,1.8,40.8,1.45,4.64,3.17,1.32
COc1ccc(/C=C(\C(=C/c2ccc(OC)cc2)[N+](=O)[O-])[N+](=O)[O-])cc1,7.87,35.4 µM,8.87,36.2,> 100,27.1,68.6,79,5.71 µM,–,–,–,–,–,–,–,–,–
COc1ccc2c(c1)nc1n2C(N)=Nc2ccccc2S1,> 100,> 100 µM,> 100,34.2,–,> 100,> 100,> 88.4,> 100 µM,6.95,–,–,–,–,–,–,–,–
C1#Cc2ccccc2OCCOc2ccccc2C#Cc2ccccc2OCCOc2ccccc21,> 100,65.2 µM,40.7,> 100,–,30.6,–,37.8,–,> 100,–,–,–,–,–,–,–,–
COc1ccc(-c2nc(-c3cc4ccccc4oc3=O)cs2)cc1,> 100,> 100 µM,> 100,> 100,> 100,> 100,> 100,–,> 100 µM,> 100,–,–,–,–,–,–,–,–
CCOP(=O)(OCC)/C(=C\N1C(=O)CC(=O)NC1=S)C(=O)OC,> 100,> 100 µM,> 100,> 100,–,> 100,> 100,> 100,> 100 µM,> 100,–,–,–,–,–,–,–,–
COc1ccc(/C=C2\CC3C4CC=C5C[C@@H](O)CC[C@]5(C)C4CC[C@]3(C)\C2=N\O)cc1OC (stereo partly drawn),> 100,> 100 µM,> 100,> 100,–,> 100,> 100,86.2,> 100 µM,> 100,–,–,–,–,–,–,–,–
COc1ccc(Oc2nc3ccc(C(F)(F)F)cc3nc2-c2ccccc2)cc1,> 100,> 100 µM,> 100,> 100,> 100,> 100,–,> 100,–,> 100,–,–,–,–,–,–,–,–
